Among the data in patent US11208400B2, “Substituted 6-(1H-pyrazol-1-yl)pyrimidin-4-amine derivatives and uses thereof” (Bayer Aktiengesellschaft, priority 2016, dated 2021) are IC50 values, retold here.

The test addresses T1, human Npt2a (Homo sapiens, UniProt Q06495).
T1 construct: expressed in transfected cells
T1 sequence (Q06495 1-639): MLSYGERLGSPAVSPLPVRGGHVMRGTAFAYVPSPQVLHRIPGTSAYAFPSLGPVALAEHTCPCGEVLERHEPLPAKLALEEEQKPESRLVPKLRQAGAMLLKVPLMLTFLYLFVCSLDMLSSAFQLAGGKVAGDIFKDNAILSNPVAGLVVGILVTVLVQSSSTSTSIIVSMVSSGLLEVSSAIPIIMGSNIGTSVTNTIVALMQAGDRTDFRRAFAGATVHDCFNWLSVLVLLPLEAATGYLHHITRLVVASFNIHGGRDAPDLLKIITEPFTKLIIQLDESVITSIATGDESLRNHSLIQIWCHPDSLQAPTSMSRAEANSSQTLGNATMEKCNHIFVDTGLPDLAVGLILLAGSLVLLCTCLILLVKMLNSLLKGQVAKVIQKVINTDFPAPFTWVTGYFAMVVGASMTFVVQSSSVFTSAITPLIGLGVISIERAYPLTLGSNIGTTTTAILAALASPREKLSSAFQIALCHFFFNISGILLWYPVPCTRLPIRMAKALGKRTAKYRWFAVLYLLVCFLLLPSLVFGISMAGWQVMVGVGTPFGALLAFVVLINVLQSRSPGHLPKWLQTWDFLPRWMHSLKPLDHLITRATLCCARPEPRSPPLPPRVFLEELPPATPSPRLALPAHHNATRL
Briefly: Npt2a activity cell based assay, membrane potential dye, CHO T-REx hNpt2a cells. The note with it: doxycycline-induced, depolarization by sodium phosphate influx, average or median values if tested more than once. An outline of the steps: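 Doxycycline-induced (0.5 μg/mL, 24 h) CHO T-REx cells were loaded with membrane potential dye in sodium-free NHE buffer (pH 7.4) and exposed to compound (50 μM–1 nM, 5 min, room temperature).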
In general, IC50 refers to the concentration that gives 50% inhibition. Regarding `Cc1nn(-c2cc(Nc3c(C)c(-c4ccc(C(F)F)cc4)nn3CC3CC3)ncn2)c(C)c1C(O)C1CC1` (single isomer, unassigned) [Example 496, Cyclopropyl {1-[6-({1-(cyclopropylmethyl)-3-[4-(difluoromethyl)phenyl]-4-methyl-1H-pyrazol-5-yl}amino)pyrimidin-4-yl]-3,5-dimethyl-1H-pyrazol-4-yl}methanol], the IC50 came out at 230 nM.
In the case of `Cc1c(-c2ccc(F)cc2)nn(CC2CC2)c1Nc1cc(-n2nc3c(c2C)C(C)(O)CC3)ncn1` (single isomer, unassigned) [Example 515, 2-(6-{[1-(cyclopropylmethyl)-3-(4-fluorophenyl)-4-methyl-1H-pyrazol-5-yl]amino}pyrimidin-4-yl)-3,4-dimethyl-2,4,5,6-tetrahydrocyclopenta[c]pyrazol-4-ol] it was 110 nM; in that of `Cc1c(-c2ccc(F)cc2)nn(CC2CC2)c1Nc1cc(-n2nc3c(c2C)C(C)(O)CC3)ncn1` (single isomer, unassigned) [Example 516, 2-(6-{[1-(cyclopropylmethyl)-3-(4-fluorophenyl)-4-methyl-1H-pyrazol-5-yl]amino}pyrimidin-4-yl)-3,4-dimethyl-2,4,5,6-tetrahydrocyclopenta[c]pyrazol-4-ol], 31 nM; in that of `CCc1c(Nc2cc(-n3nc(C)cc3C)ncn2)nn(C)c1-c1ccc(F)cc1` [Example 1, 6-(3,5-dimethyl-1H-pyrazol-1-yl)-N-[4-ethyl-5-(4-fluorophenyl)-1-methyl-1H-pyrazol-3-yl]pyrimidin-4-amine], 4.48 nM.
To `CCc1c(-c2ccc(F)cc2)n[nH]c1Nc1cc(-n2nc(C)cc2C(F)F)ncn1` [Example 2, 6-[5-(difluoromethyl)-3-methyl-1H-pyrazol-1-yl]-N-[4-ethyl-3-(4-fluorophenyl)-1H-pyrazol-5-yl]pyrimidin-4-amine] belongs 12 nM; to `Cc1nn(-c2cc(Nc3[nH]nc(-c4ccc(F)cc4F)c3Cl)ncn2)c(C)c1Cl` [Example 3, N-[4-chloro-3-(2,4-difluorophenyl)-1H-pyrazol-5-yl]-6-(4-chloro-3,5-dimethyl-1H-pyrazol-1-yl)pyrimidin-4-amine], 13 nM; to `CCOC(=O)c1c(C)nn(-c2cc(Nc3n[nH]c(-c4ccc(F)cc4)c3CC)ncn2)c1C` [Example 4, ethyl 1-(6-{[4-ethyl-5-(4-fluorophenyl)-1H-pyrazol-3-yl]amino}pyrimidin-4-yl)-3,5-dimethyl-1H-pyrazole-4-carboxylate], 28.3 nM.
In the case of `CCc1c(Nc2cc(-n3nc(C)c(Cl)c3C)ncn2)n[nH]c1-c1ccc(F)cc1` [Example 5, 6-(4-chloro-3,5-dimethyl-1H-pyrazol-1-yl)-N-[4-ethyl-5-(4-fluorophenyl)-1H-pyrazol-3-yl]pyrimidin-4-amine] it was 27.5 nM; in that of `Cc1cc(C)n(-c2cc(Nc3n[nH]c(-c4ccc(F)cc4F)c3Cl)ncn2)n1` [Example 6, N-[4-chloro-5-(2,4-difluorophenyl)-1H-pyrazol-3-yl]-6-(3,5-dimethyl-1H-pyrazol-1-yl)pyrimidin-4-amine], 49 nM.
In turn, `Cc1cc(C)n(-c2cc(Nc3n[nH]c(-c4ccc(F)cc4)c3C3CC3)ncn2)n1` [Example 7, N-[4-cyclopropyl-5-(4-fluorophenyl)-1H-pyrazol-3-yl]-6-(3,5-dimethyl-1H-pyrazol-1-yl)pyrimidin-4-amine] came in with an IC50 of 36 nM.
Take `Cc1nn(-c2cc(Nc3[nH]nc(-c4ccc(F)cc4)c3C3CC3)ncn2)c(C)c1Cl` [Example 8, 6-(4-chloro-3,5-dimethyl-1H-pyrazol-1-yl)-N-[4-cyclopropyl-3-(4-fluorophenyl)-1H-pyrazol-5-yl]pyrimidin-4-amine]: the IC50 turned out to be 38 nM.
To `CCc1c(Nc2cc(-n3nc(C)cc3C)ncn2)n[nH]c1-c1ccc(F)cc1F` [Example 9, N-[5-(2,4-difluorophenyl)-4-ethyl-1H-pyrazol-3-yl]-6-(3,5-dimethyl-1H-pyrazol-1-yl)pyrimidin-4-amine] belongs 40 nM.
In the case of `Cc1cc(C)n(-c2cc(Nc3[nH]nc(-c4ccccc4)c3C)ncn2)n1` [Example 10, 6-(3,5-dimethyl-1H-pyrazol-1-yl)-N-(4-methyl-3-phenyl-1H-pyrazol-5-yl)pyrimidin-4-amine] it was 33.7 nM; in that of `Cc1nn(-c2cc(Nc3n[nH]c(-c4ccccc4)c3C)ncn2)c(C)c1Cl` [Example 11, 6-(4-chloro-3,5-dimethyl-1H-pyrazol-1-yl)-N-(4-methyl-5-phenyl-1H-pyrazol-3-yl)pyrimidin-4-amine], 50.3 nM; in that of `CCc1c(-c2ccc(F)cc2)nn(C)c1Nc1cc(-n2nc(C)cc2C)ncn1` [Example 12, 6-(3,5-dimethyl-1H-pyrazol-1-yl)-N-[4-ethyl-3-(4-fluorophenyl)-1-methyl-1H-pyrazol-5-yl]pyrimidin-4-amine], 50 nM.
In the case of `CCc1c(-c2ccc(F)cc2)n[nH]c1Nc1cc(-n2nc(C)cc2C)ncn1` [Example 13, 6-(3,5-dimethyl-1H-pyrazol-1-yl)-N-[4-ethyl-3-(4-fluorophenyl)-1H-pyrazol-5-yl]pyrimidin-4-amine] it was 61.9 nM.
Consider `Cc1cc(C)n(-c2cc(Nc3[nH]nc(-c4ccc(F)cc4)c3Cl)ncn2)n1` [Example 14, N-[4-chloro-3-(4-fluorophenyl)-1H-pyrazol-5-yl]-6-(3,5-dimethyl-1H-pyrazol-1-yl)pyrimidin-4-amine], for which the midpoint of inhibition, the IC50, lay at 70 nM.
On to `CCOC(=O)c1c(C)nn(-c2cc(Nc3[nH]nc(-c4ccc(F)cc4)c3C3CC3)ncn2)c1C` [Example 15, ethyl 1-(6-{[4-cyclopropyl-3-(4-fluorophenyl)-1H-pyrazol-5-yl]amino}pyrimidin-4-yl)-3,5-dimethyl-1H-pyrazole-4-carboxylate], for which it took 72 nM to reach half-maximal inhibition (IC50).
Consider `CCOC(=O)c1c(C)nn(-c2cc(Nc3n[nH]c(-c4ccccc4)c3C)ncn2)c1C` [Example 16, ethyl 3,5-dimethyl-1-{6-[(4-methyl-5-phenyl-1H-pyrazol-3-yl)amino]pyrimidin-4-yl}-1H-pyrazole-4-carboxylate], for which half-maximal inhibition (IC50) was put at 81 nM.
In the case of `Cc1cc(C)n(-c2cc(Nc3n[nH]c(-c4ccc(F)cc4)c3C)ncn2)n1` [Example 17, 6-(3,5-dimethyl-1H-pyrazol-1-yl)-N-[5-(4-fluorophenyl)-4-methyl-1H-pyrazol-3-yl]pyrimidin-4-amine] it was 100 nM; in that of `CCc1c(Nc2cc(-n3cc4c(n3)CCCC4)ncn2)n[nH]c1-c1ccc(F)cc1` [Example 18, N-[4-ethyl-5-(4-fluorophenyl)-1H-pyrazol-3-yl]-6-(4,5,6,7-tetrahydro-2H-indazol-2-yl)pyrimidin-4-amine], 110 nM; in that of `CCc1c(Nc2cc(-n3nc(C)c4ccccc43)ncn2)n[nH]c1-c1ccc(F)cc1` [Example 19, N-[4-ethyl-5-(4-fluorophenyl)-1H-pyrazol-3-yl]-6-(3-methyl-1H-indazol-1-yl)pyrimidin-4-amine], 110 nM.
Turning to `CCc1c(Nc2cc(-n3cc4c(n3)CCC4)ncn2)n[nH]c1-c1ccc(F)cc1` [Example 20, 6-(5,6-dihydrocyclopenta[c]pyrazol-2(4H)-yl)-N-[4-ethyl-5-(4-fluorophenyl)-1H-pyrazol-3-yl]pyrimidin-4-amine], half-maximal inhibition (IC50) was put at 120 nM.
In the case of `CCc1c(Nc2cc(-n3nc(C)cc3C)ncn2)n[nH]c1-c1ccc(Cl)cc1` [Example 21, N-[5-(4-chlorophenyl)-4-ethyl-1H-pyrazol-3-yl]-6-(3,5-dimethyl-1H-pyrazol-1-yl)pyrimidin-4-amine] it was 140 nM; in that of `CCc1c(Nc2cc(-n3ncc4c3CCCC4)ncn2)n[nH]c1-c1ccc(F)cc1` [Example 22, N-[4-ethyl-5-(4-fluorophenyl)-1H-pyrazol-3-yl]-6-(4,5,6,7-tetrahydro-1H-indazol-1-yl)pyrimidin-4-amine], 150 nM; in that of `Cc1cc(C)n(-c2cc(Nc3nn(C)c(-c4ccc(F)cc4)c3C#N)ncn2)n1` [Example 23, 3-{[6-(3,5-dimethyl-1H-pyrazol-1-yl)pyrimidin-4-yl]amino}-5-(4-fluorophenyl)-1-methyl-1H-pyrazole-4-carbonitrile], 315 nM.
`Cc1cc(C)n(-c2cc(Nc3c(C#N)c(-c4ccc(F)cc4)nn3C)ncn2)n1` [Example 24, 5-{[6-(3,5-dimethyl-1H-pyrazol-1-yl)pyrimidin-4-yl]amino}-3-(4-fluorophenyl)-1-methyl-1H-pyrazole-4-carbonitrile] had an IC50 of 310 nM.
In the case of `CCc1c(Nc2cc(-n3nc(C)c(C)c3O)ncn2)nn(C)c1-c1ccc(F)cc1` [Example 25, 1-(6-{[4-ethyl-5-(4-fluorophenyl)-1-methyl-1H-pyrazol-3-yl]amino}pyrimidin-4-yl)-3,4-dimethyl-1H-pyrazol-5-ol] it was 1070 nM; in that of `CCc1c(Nc2cc(-n3cc4c(n3)CN(C(=O)OC(C)(C)C)CC4)ncn2)n[nH]c1-c1ccc(F)cc1` [Example 26, tert-butyl 2-(6-{[4-ethyl-5-(4-fluorophenyl)-1H-pyrazol-3-yl]amino}pyrimidin-4-yl)-2,4,5,7-tetrahydro-6H-pyrazolo[3,4-c]pyridine-6-carboxylate], 460 nM.
